Measured values from publication PMC7763995 (Molecules, 2020).

Experiments:
Human erythrocyte AChE = target: T1, Human erythrocyte AChE (Homo sapiens, UniProt P22303); assay: Kinetic study of AChE inhibition, steady-state inhibition constants; format: biochemical
T1 construct: AChE from human erythrocytes was used; purchased Sigma-Aldrich; host or cells: human erythrocytes
Experimental: Mechanisms of human erythrocyte AChE and equine serum BChE inhibition were assessed via a thorough analysis of enzyme kinetics. Residual activity was measured following 5 min incubation at 25°C (for temperature equilibration) with three increasing concentrations of inhibitor and six decreasing substrate concentrations. Substrate was added immediately after the 5 min incubation with inhibitor and the rates of absorption were monitored at 412 nm using a FLUOStar OPTIMA microplate reader.

Porcine liver CES = assay: In vitro CES inhibition, 4-NPA substrate; format: biochemical; conditions: compound concentration 20 µM; n.a. = not active
Experimental: Measurements were performed with a FLUOStar Optima microplate reader (BMG Labtech, Ortenberg, Germany). Compounds were dissolved in DMSO, the incubation mixture contained 2% solvent.

mouse brain homogenate = assay: Luminol chemiluminescence assay in mouse brain homogenate (TBHP-initiated); conditions: compound concentration 20 µM; mice brain homogenate
Experimental: The work was carried out in accordance with the EU Directive 2010/63/EU. Hybrid BDF1 mice (about 6 months old) were sacrificed by decapitation. Each brain was rapidly excised, frozen in liquid nitrogen, and stored at −80°C until use. The brains were thawed and homogenized using a Wisd WiseTis HG-15D homogenizer for 2 min in a buffer (0.01 M PBS, pH 7.4 or 0.1 M Tris-HCl, pH 7.4). Protein concentrations were determined by the Lowry method.
Luminol-dependent chemiluminescence produced by mouse brain homogenates was measured using a 1250 Luminometer (LKB Wallac, Turku, Finland) according to the assay by Di Meo et al. with minor modifications. The reaction mixture consisted of mouse brain homogenate (protein concentration 0.1 mg/mL) in 0.1 M Tris-HCl (Sigma-Aldrich), pH 7.4, luminol (Sigma-Aldrich) (0.05 mM), TBHP (Sigma-Aldrich) (0.073 M) and tested compounds at a concentration of 20 μM. This was placed in a light-proof luminometer chamber and the background reading was recorded. All measurements were carried out at 37°C. The gain control was set to give a reading of 10 mV using a built-in standard. The free radical content in mouse brain homogenate was evaluated by the change in the light sum (the area under the kinetic curve of luminescence intensity for the entire luminescence time). All compounds were examined at least in triplicate. The effects of tested compounds were measured as the percentage decrease in the light sum relative to the control (a sample with no compound added).

[1] = FRAP (ferric reducing antioxidant power) assay; conditions: 20 µM, 1 h incubation; ratio of concentrations of Trolox and test compound with same effect
Experimental: The FRAP (ferric reducing antioxidant power) assay proposed by Benzie and Strain [80, 81] was modified to be performed in 96-well microplates. The FRAP reagent contained 2.5 mL of 10 mM TPTZ (2,4,6-tris(2-pyridyl)-s-triazine (Sigma-Aldrich) solution in 40 mM HCl, 2.5 mL of 20 mM FeCl3 (Sigma-Aldrich) in distilled water and 25 mL of 0.3 M acetate buffer (pH 3.6). In 96-well microplates, 10 µL aliquots of the substance under investigation (compounds 7, 8 or reference substance) dissolved in DMSO (0.5 mM) were placed in quadruplicate. The FRAP reagent (240 µL) freshly prepared and warmed to 37°C was added to three of these samples, while the same volume of acetate buffer was added to the fourth one (blank). Consequently, the concentration of the substance in a plate was 20 µM. The absorbance at 600 nm was monitored spectrophotometrically with a FLUOStar OPTIMA microplate reader at 37°C for an hour with an interval of 5–10 min. Data in Table 2 are given for 1 h of incubation of compounds with FRAP reagent. The absorbances of the blanks and those of the mixture of 240 µL FRAP reagent plus 10 µL DMSO were subtracted from the absorbances of the samples at each time interval to calculate the absorbance change. Standard antioxidants Trolox and BHT dissolved in DMSO and analyzed as described above were used as reference compounds. A calibration curve with linear formula y = 0.03x (R^2 = 0.998, p < 0.0001) was obtained for Trolox solution in DMSO in the range 2.5–100 µM and the results were expressed as FRAP units (the values calculated as the ratio of the concentrations of Trolox and the test compound resulting in the same effect.)

T1 sequence (P22303 32-617 isoform P22303-2 limits assumed): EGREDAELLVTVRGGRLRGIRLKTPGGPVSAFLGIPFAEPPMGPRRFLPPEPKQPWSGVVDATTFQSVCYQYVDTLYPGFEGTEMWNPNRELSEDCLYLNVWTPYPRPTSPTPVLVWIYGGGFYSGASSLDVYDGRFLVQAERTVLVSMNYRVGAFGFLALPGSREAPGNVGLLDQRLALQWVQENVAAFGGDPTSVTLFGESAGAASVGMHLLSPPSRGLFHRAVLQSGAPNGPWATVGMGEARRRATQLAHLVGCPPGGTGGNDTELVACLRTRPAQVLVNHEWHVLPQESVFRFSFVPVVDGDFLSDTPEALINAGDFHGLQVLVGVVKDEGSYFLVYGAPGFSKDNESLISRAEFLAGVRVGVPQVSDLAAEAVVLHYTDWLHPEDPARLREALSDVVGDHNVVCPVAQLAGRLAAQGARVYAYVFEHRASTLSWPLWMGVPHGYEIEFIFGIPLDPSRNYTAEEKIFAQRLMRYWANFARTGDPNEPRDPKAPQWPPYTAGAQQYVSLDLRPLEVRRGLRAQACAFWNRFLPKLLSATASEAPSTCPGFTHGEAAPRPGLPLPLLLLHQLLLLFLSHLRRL

CC(C)(C)c1cc(C=NCCNc2c3c(nc4ccccc24)CCCCC3)cc(C(C)(C)C)c1O [Compound 7c, 2,6-Di-tert-butyl-4-{[2-(7,8,9,10-tetrahydro-6H-cyclohepta[b]quinolin-11-ylamino)-ethylimino]-methyl}-phenol]
αKi (noncompetitive component), AChE (Human erythrocyte AChE; Lineweaver-Burk plots): 4.30 ± 0.02 µM | Ki (Human erythrocyte AChE; Lineweaver-Burk plots, read-out: Ki (competitive component), AChE): 1.58 ± 0.1 µM | Mechanism of AChE inhibition (Human erythrocyte AChE; changes in both Km and Vmax): mixed type of reversible inhibition | Porcine Liver CES, (%) inhibition (Porcine liver CES): 30.1 ± 2.5% | Radical Scavenging Capacity in Luminol Chemiluminescence Assay, Luminescence Inhibition, % (mouse brain homogenate): 95.0 ± 0.4% | Ferric Reducing Antioxidant Power, FRAP Units [1]: 0.52 ± 0.04
